US9458146B2, “Crystalline sodium salt of an HIV integrase inhibitor” (SANDOZ AG, priority 2011, dated 2016)
In brackets after ≈: the same amount, converted by molar mass.

Tests used:
[1] = Storage of form A at elevated temperature; assay type: physicochemical
[2] = Solubility and stability of form A in water; assay type: physicochemical; details: 22±2° C.
Protocol: 104 mg of raltegravir sodium salt form A is suspended in 1.0 ml water and the suspension placed on a laboratory shaker at 22±2° C. for 24 hours at a rate of 400 rpm. After 24 hours shaking the suspension is filtered, the obtained solid investigated by powder X-ray diffraction, and the concentration in the liquid phase is determined by UV-vis spectroscopy.

SMILES: Cc1nnc(C(=O)NC(C)(C)c2nc(C(=O)NCc3ccc(F)cc3)c(O)c(=O)n2C)o1 [form A, N-(4-fluorobenzyl)-5-hydroxy-1-methyl-2-(1-methyl-1-{[(5-methyl-1,3,4-oxadiazol-2-yl)carbonyl]amino}ethyl)-6-oxo-1,6-dihydropyrimidine-4-carboxamide]
- thermal stability on storage [1]: without decomposition
- solubility ([2]; 22 °C, thermodynamic from solid, suspended in water, 24 hours shaking, resulting pH 10.4, UV-vis, read-out: aqueous solubility (concentration in the liquid phase)): 47 ± 5 mg/mL (≈ 106 mM)
- crystalline form of the solid after suspension in water (XRPD) ([2]; suspension in water, 24 hours): form A is retained
- pH of the liquid phase ([2]; suspension in water, 24 hours): 10.4
- crystalline form of the solid after suspension in water (XRPD) ([2]; suspension in water, 24 hours, listed as raltegravir sodium salt form A): crystalline form A is retained
